This test concerns the target T1, Full length wild-type cereblon CRBN (Homo sapiens, UniProt Q96SW2).
T1 construct: Full length wild-type cereblon CRBN (80.0 nM, 10 μL) was incubated in assay buffer
The experiment in a line: Fluorescence polarization (FP) assay indicating cereblon binding. As for the experimental part:
Compound activity was monitored in a fluorescence polarization (FP) homogeneous assay using 1-[5-({2-[2-(2-{[2-(2,6-dioxopiperidin-3-yl)-1,3-dioxo-2,3-dihydro-1H-isoindol-4-yl]oxy}acetamido)ethoxy]ethyl}carbamoyl)pentyl]-3,3-dimethyl-2-[(1E,3E)-5-[(2E)-1,3,3-trimethyl-5-sulfo-2,3-dihydro-1H-indol-2-ylidene]penta-1,3-dien-1-yl]-3H-indol-1-ium-5-sulfonate as a fluorescent probe. Unless otherwise stated, all reagents were purchased from Sigma Aldrich. Enzymatic reactions were conducted in Perkin-Elmer Black 384 well ProxiPlate Plus (catalogue no. 6008269) in 10 μL total volume. Full length wild-type cereblon CRBN (80.0 nM, 10 μL) was incubated in assay buffer containing 20 mM HEPES (pH 8.0), […], 0.5 mM TCEP and 0.05% Tween 20 in the presence or absence of compound (300 nL). Inhibitors were stored as 10 mM DMSO stocks in an inert environment (low humidity, dark, low oxygen, room temperature) using the Storage Pod System. Compounds and DMSO were dispensed using the Echo E5XX (Labcyte Inc. USA) to give concentrations from 300 to 0.937 or 3000 to 9.3 nM in a 12 data point curve. […] Following incubation at room temperature for 30 min, the assay was initiated by dispensing the probe to a final concentration of 5 nM (2.5 nL of a 20 μM stock) using the Echo E5XX. FP was measured after a period of 12 hours using a Pherastar plate reader (BMG Labtech, Germany) exciting at 590 nm and measuring the amount of parallel and perpendicular light at 675 nm. The FP signal was subsequently normalized to the no-compound control (i.e., DMSO). Analysis and IC50 values were derived using Dotmatics (Dotmatics UK) software.

[1] abbreviates: bounds stated, read-out: IC50 value.

pIC50: −log10 of the molar value. Like-named read-outs stand apart in the source and are kept apart here.

T1 sequence (Q96SW2 whole entry): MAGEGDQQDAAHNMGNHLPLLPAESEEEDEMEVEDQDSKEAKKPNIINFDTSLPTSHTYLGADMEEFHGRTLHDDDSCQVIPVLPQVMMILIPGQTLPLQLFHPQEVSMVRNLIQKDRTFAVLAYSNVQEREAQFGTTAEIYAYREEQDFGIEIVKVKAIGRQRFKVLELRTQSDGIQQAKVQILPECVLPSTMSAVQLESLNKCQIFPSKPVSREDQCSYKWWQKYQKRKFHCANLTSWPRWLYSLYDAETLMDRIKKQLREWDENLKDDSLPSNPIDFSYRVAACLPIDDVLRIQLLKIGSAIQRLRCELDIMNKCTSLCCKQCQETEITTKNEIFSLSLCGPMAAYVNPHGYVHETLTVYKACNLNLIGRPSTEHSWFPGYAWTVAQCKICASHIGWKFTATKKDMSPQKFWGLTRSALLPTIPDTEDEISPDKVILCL

Take `O=C1CCC(N2Cc3ccc(CNC(=O)Nc4ccc(F)c(F)c4)cc3C2=O)C(=O)N1` (stereo not drawn) [Compound 39]: the negative logarithm of the IC50 (pIC50) under setting [1] was above 6.22.
The same measure, in the same setting: for `O=C1CCC(N2Cc3ccc(CNC(=O)NCC4CCCCC4)cc3C2=O)C(=O)N1` (stereo not drawn) [Compound 58] the value was above 6.22; for `Cc1ccc(NC(=O)NCc2ccc3c(c2)C(=O)N(C2CCC(=O)NC2=O)C3)cc1` (stereo not drawn) [Compound 21], above 6.22.
With `Cc1ccc(NC(=O)OCc2cc(Br)c3c(c2)C(=O)N(C2CCC(=O)NC2=O)C3)cc1Cl` (stereo not drawn) [Compound 501], the negative logarithm of the IC50 (pIC50) (Table 3B, read-out: rFP IC50) is below 5.72.
The same measure, in the same setting: for `Cc1ccc(NC(=O)OCc2ccc3c(c2F)C(=O)N(C2CCC(=O)NC2=O)C3)cc1Cl` (stereo not drawn) [Compound 571] the value was below 5.72; for `O=C1CCC(N2Cc3c(F)cc(COC(=O)Nc4cc(Cl)cc(Cl)c4)cc3C2=O)C(=O)N1` (stereo not drawn) [Compound 528], below 5.72.
As for `Cc1ccc(NC(=O)OCc2cc(Cl)c3c(c2)C(=O)N(C2CCC(=O)NC2=O)C3)cc1Cl` (stereo not drawn) [Compound 504], the negative logarithm of the IC50 (pIC50) (Table 3B, read-out: rFP IC50) was below 5.72.
As for `Cc1c(Cl)cccc1NC(=O)NCc1ccc2c(c1)C(=O)N(C1CCC(=O)NC1=O)C2` (stereo not drawn) [Compound 19], the pIC50 under setting [1] was above 6.22.
Consider `CC1(c2ccc(NC(=O)OCc3cc(F)c4c(c3)C(=O)N(C3CCC(=O)NC3=O)C4)cc2)CC1` (stereo not drawn) [Compound 513], for which the pIC50 (Table 3B, read-out: rFP IC50) is below 5.72.
For `COc1cc(COC(=O)Nc2cccc(C(C)(C)C)c2)cc2c1CN(C1CCC(=O)NC1=O)C2=O` (stereo not drawn) [Compound 554], the pIC50 (Table 3B, read-out: rFP IC50) is at least 6.22.
Take `O=C1CCC(N2Cc3ccc(CNC(=O)Nc4ccccc4F)cc3C2=O)C(=O)N1` (stereo not drawn) [Compound 48]: the pIC50 under setting [1] is above 6.22.
Turning to `COc1cc(COC(=O)Nc2cc(-c3ccccc3)ccn2)cc2c1CN(C1CCC(=O)NC1=O)C2=O` (stereo not drawn) [Compound 556], the negative-log IC50 (pIC50) (Table 3B, read-out: rFP IC50) was at least 6.22.
The same measure, in the same setting: under `COc1cc(COC(=O)Nc2cnc(-c3ccccc3)c(C)c2)cc2c1CN(C1CCC(=O)NC1=O)C2=O` (stereo not drawn) [Compound 559] stands at least 6.22.
For the compound `COc1cc(COC(=O)Nc2ccc(C(C)(C)C)nc2)cc2c1CN(C1CCC(=O)NC1=O)C2=O` (stereo not drawn) [Compound 544], the negative-log IC50 (pIC50) (Table 3B, read-out: rFP IC50) is at least 6.22.
Regarding `O=C1CCC(N2Cc3ccc(CNC(=O)Nc4cc(Cl)cc(Cl)c4)cc3C2=O)C(=O)N1` (stereo not drawn) [Compound 38], under setting [1], the negative logarithm of the IC50 (pIC50) was above 6.22.
The same measure, in the same setting: for `Cc1cccc(NC(=O)NCc2ccc3c(c2)C(=O)N(C2CCC(=O)NC2=O)C3)c1C` (stereo not drawn) [Compound 44] the value was above 6.22; for `CC(C)(C)c1ccc(NC(=O)NCc2ccc3c(c2)C(=O)N(C2CCC(=O)NC2=O)C3)cc1` (stereo not drawn) [Compound 56], above 6.22.
Take `O=C1CCC(N2Cc3c(F)cc(COC(=O)Nc4cc(F)cc(OC(F)(F)F)c4)cc3C2=O)C(=O)N1` (stereo not drawn) [Compound 512]: for the setting “Table 3B, read-out: rFP IC50”, the pIC50 is below 5.72.
As to `Cc1ccccc1NC(=O)NCc1ccc2c(c1)C(=O)N(C1CCC(=O)NC1=O)C2` (stereo not drawn) [Compound 37], the pIC50 under setting [1] was above 6.22.
As to `COc1cc(COC(=O)Nc2ccc3c(c2)OCC3(C)C)cc2c1CN(C1CCC(=O)NC1=O)C2=O` (stereo not drawn) [Compound 537], the negative-log IC50 (pIC50) (Table 3B, read-out: rFP IC50) was at least 6.22.
The same measure, in the same setting: for `CC(C)(C)c1cccc(NC(=O)OCc2cc(F)c3c(c2)C(=O)N(C2CCC(=O)NC2=O)C3)c1` (stereo not drawn) [Compound 525] the value was below 5.72.
Consider `CC(C)c1ccc(NC(=O)NCc2ccc3c(c2)C(=O)N(C2CCC(=O)NC2=O)C3)cc1` (stereo not drawn) [Compound 57], for which the pIC50 under setting [1] is above 6.22.
On the same count and under the same terms, for `CCc1ccc(NC(=O)NCc2ccc3c(c2)C(=O)N(C2CCC(=O)NC2=O)C3)cc1` (stereo not drawn) [Compound 18] the value was above 6.22.
Turning to `O=C1CCC(N2Cc3c(F)cc(COC(=O)Nc4cccc(OC(F)(F)F)c4)cc3C2=O)C(=O)N1` (stereo not drawn) [Compound 515], the pIC50 (Table 3B, read-out: rFP IC50) is below 5.72.
Take `O=C1CCC(N2Cc3ccc(CNC(=O)Nc4ccc(Cl)cc4Cl)cc3C2=O)C(=O)N1` (stereo not drawn) [Compound 45]: the negative logarithm of the IC50 (pIC50) under setting [1] was above 6.22.
The same measure, in the same setting: under `O=C1CCC(N2Cc3ccc(CNC(=O)NCC4CC4)cc3C2=O)C(=O)N1` (stereo not drawn) [Compound 26] stands above 6.22.
For the compound `COc1cc(COC(=O)Nc2ccc(N3CCCCC3C)nc2)cc2c1CN(C1CCC(=O)NC1=O)C2=O` (stereo not drawn) [Compound 538], the pIC50 (Table 3B, read-out: rFP IC50) was at least 6.22.
Take `C[C@@H](NC(=O)NCc1ccc2c(c1)C(=O)N(C1CCC(=O)NC1=O)C2)c1ccccc1` (stereo partly drawn) [Compound 54]: the negative-log IC50 (pIC50) under setting [1] is above 6.22.
On the same count and under the same terms, under `COc1ccc(CNC(=O)NCc2ccc3c(c2)C(=O)N(C2CCC(=O)NC2=O)C3)cc1` (stereo not drawn) [Compound 52] stands above 6.22.
In the case of `O=C1CCC(N2Cc3c(F)cc(COC(=O)Nc4ccc(-c5ccccn5)cc4)cc3C2=O)C(=O)N1` (stereo not drawn) [Compound 511], under “Table 3B, read-out: rFP IC50”, the pIC50 is at least 6.22.
For the compound `CC(C)(C)c1ccccc1NC(=O)NCc1ccc2c(c1)C(=O)N(C1CCC(=O)NC1=O)C2` (stereo not drawn) [Compound 11], under setting [1], the negative logarithm of the IC50 (pIC50) was above 6.22.
Still for that read-out and setting: for `O=C1CCC(N2Cc3ccc(CNC(=O)NCCc4ccccc4)cc3C2=O)C(=O)N1` (stereo not drawn) [Compound 27] the value was above 6.22; for `Cc1ccc(F)cc1NC(=O)NCc1ccc2c(c1)C(=O)N(C1CCC(=O)NC1=O)C2` (stereo not drawn) [Compound 62], above 6.22; for `CCc1ccccc1NC(=O)NCc1ccc2c(c1)C(=O)N(C1CCC(=O)NC1=O)C2` (stereo not drawn) [Compound 36], above 6.22.
Consider `COc1cccc(CNC(=O)NCc2ccc3c(c2)C(=O)N(C2CCC(=O)NC2=O)C3)c1` (stereo not drawn) [Compound 53], for which the negative-log IC50 (pIC50) under setting [1] was above 6.22.
Turning to `O=C1CCC(N2Cc3c(F)cc(COC(=O)Nc4cc(Cl)cc(OC(F)F)c4)cc3C2=O)C(=O)N1` (stereo not drawn) [Compound 534], the negative logarithm of the IC50 (pIC50) (Table 3B, read-out: rFP IC50) was below 5.72.
The same measure, in the same setting: for `Cc1ccc(NC(=O)OCc2cc(F)c3c(c2)C(=O)N(C2CCC(=O)NC2=O)C3)cc1Cl` (stereo not drawn) [Compound 503] the value was below 5.72.
Consider `CCOc1ccc(NC(=O)NCc2ccc3c(c2)C(=O)N(C2CCC(=O)NC2=O)C3)cc1` (stereo not drawn) [Compound 16], for which the pIC50 under setting [1] was above 6.22.
As to `Cc1cc(C)cc(NC(=O)OCc2cc(F)c3c(c2)C(=O)N(C2CCC(=O)NC2=O)C3)c1` (stereo not drawn) [Compound 531], the pIC50 (Table 3B, read-out: rFP IC50) is below 5.72.
With `O=C1CCC(N2Cc3ccc(CNC(=O)NC4CCCc5ccccc54)cc3C2=O)C(=O)N1` (stereo not drawn) [Compound 40], the pIC50 under setting [1] is above 6.22.
Take `Cc1ccc(NC(=O)OCc2cc(F)c3c(c2)C(=O)N(C2CCC(=O)NC2=O)C3)cc1OC(F)F` (stereo not drawn) [Compound 535]: the pIC50 (Table 3B, read-out: rFP IC50) is below 5.72.
On the same count and under the same terms, under `O=C1CCC(N2Cc3c(F)cc(COC(=O)Nc4cc(-c5ccccc5)ccn4)cc3C2=O)C(=O)N1` (stereo not drawn) [Compound 524] stands below 5.72.
As for `COc1ccc(C)cc1NC(=O)NCc1ccc2c(c1)C(=O)N(C1CCC(=O)NC1=O)C2` (stereo not drawn) [Compound 17], the pIC50 under setting [1] was above 6.22.
Same read-out and setting: under `O=C1CCC(N2Cc3ccc(CNC(=O)Nc4ccc(F)c(Cl)c4)cc3C2=O)C(=O)N1` (stereo not drawn) [Compound 42] stands above 6.22.
For the compound `COc1cc(COC(=O)Nc2ccc(-c3ccccc3C)nc2)cc2c1CN(C1CCC(=O)NC1=O)C2=O` (stereo not drawn) [Compound 560], under “Table 3B, read-out: rFP IC50”, the pIC50 is at least 6.22.
Still for that read-out and setting: for `O=C1CCC(N2Cc3c(F)cc(COC(=O)Nc4ccc(-c5ccccc5)nc4)cc3C2=O)C(=O)N1` (stereo not drawn) [Compound 508] the value was below 5.72; for `Cc1ccccc1-c1ccc(NC(=O)OCc2cc(F)c3c(c2)C(=O)N(C2CCC(=O)NC2=O)C3)cn1` (stereo not drawn) [Compound 519], at least 6.22; for `O=C1CCC(N2Cc3c(F)cc(COC(=O)Nc4cc(F)cc(OC(F)F)c4)cc3C2=O)C(=O)N1` (stereo not drawn) [Compound 506], below 5.72.
On to `O=C1CCC(N2Cc3ccc(CNC(=O)Nc4cccc(Cl)c4Cl)cc3C2=O)C(=O)N1` (stereo not drawn) [Compound 50], for which, under setting [1], the pIC50 was above 6.22.
As for `COc1cc(COC(=O)Nc2cccc(OC(F)F)c2)cc2c1CN(C1CCC(=O)NC1=O)C2=O` (stereo not drawn) [Compound 553], the negative-log IC50 (pIC50) (Table 3B, read-out: rFP IC50) is at least 6.22.
Consider `O=C1CCC(N2Cc3ccc(CNC(=O)Nc4ccccc4C(F)(F)F)cc3C2=O)C(=O)N1` (stereo not drawn) [Compound 49], for which, under setting [1], the negative-log IC50 (pIC50) is above 6.22.
On the same count and under the same terms, under `O=C1CCC(N2Cc3ccc(CNC(=O)Nc4ccc(C(F)(F)F)cc4)cc3C2=O)C(=O)N1` (stereo not drawn) [Compound 41] stands above 6.22.
On to `COc1cc(COC(=O)Nc2cc(C)cc(C)c2)cc2c1CN(C1CCC(=O)NC1=O)C2=O` (stereo not drawn) [Compound 552], for which, under “Table 3B, read-out: rFP IC50”, the pIC50 is at least 6.22.
On the same count and under the same terms, for `COc1cc(COC(=O)Nc2cccc(OC3CC3)c2)cc2c1CN(C1CCC(=O)NC1=O)C2=O` (stereo not drawn) [Compound 558] the value was at least 6.22.
Turning to `Cc1cccc(NC(=O)NCc2ccc3c(c2)C(=O)N(C2CCC(=O)NC2=O)C3)c1` (stereo not drawn) [Compound 43], under setting [1], the pIC50 is above 6.22.
In the case of `COc1ccccc1CNC(=O)OCc1ccc2c(c1)C(=O)N(C1CCC(=O)NC1=O)C2` (stereo not drawn) [Compound 297], the negative-log IC50 (pIC50) (bound stated, read-out: IC50 value) is above 5.96.
`Cc1ccc(NC(=O)OCc2cc(C#N)c3c(c2)C(=O)N(C2CCC(=O)NC2=O)C3)cc1Cl` (stereo not drawn) [Compound 502]: the negative-log IC50 (pIC50) (Table 3B, read-out: rFP IC50) is below 5.72.
As to `COc1ccc(NC(=O)NCc2ccc3c(c2)C(=O)N(C2CCC(=O)NC2=O)C3)cc1` (stereo not drawn) [Compound 5], the pIC50 under setting [1] is above 6.22.
Take `COc1ccc(NC(=O)NCc2ccc3c(c2)C(=O)N(C2CCC(=O)NC2=O)C3)c(C)c1` (stereo not drawn) [Compound 23]: under setting [1], the pIC50 is above 6.22.
`COc1ccccc1NC(=O)NCc1ccc2c(c1)C(=O)N(C1CCC(=O)NC1=O)C2` (stereo not drawn) [Compound 7]: the negative-log IC50 (pIC50) under setting [1] is above 6.22.
